Laboratory results published in PubChem BioAssay (NCI).
Several values for one entry are separate records, joined by “and”; a condition that tells them apart may be missing. Identical values can stand only once.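 All cell lines were grown in 96-well plates and treated with compound for 48 hours. GI50 is the concentration that inhibits growth by half. TGI marks complete inhibition of growth.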 Where a SMILES comes first, the peptide text is derived from it. [ ]: non-standard residue; d: D form. The star is where a group is joined. X28 = COC1=CC(=O)N(C(=O)[C@@H](O*)C(C)C)[C@H]1Cc1ccccc1; NMeL = CN[C@@H](CC(C)C)C(=O)O; Hexanoyl = CCCCCC(=O)*

Assays:
Assay in all cases: growth of human tumour cells (NCI), 48 h
786-0 renal = test system: 786-0 renal
A549 NSCLC = test system: A549 NSCLC
BT-549 breast = test system: BT-549 breast
HS 578T breast = test system: HS 578T breast
IGROV1 ovarian = test system: IGROV1 ovarian
KM12 colon = test system: KM12 colon
PC-3 prostate = test system: PC-3 prostate
SN12C renal = test system: SN12C renal
U251 CNS = test system: U251 CNS
UO-31 renal = test system: UO-31 renal
SR leukemia = test system: SR leukemia

Structure (SMILES)	TGI (786-0 renal)	TGI (A549 NSCLC) [µM]	TGI (BT-549 breast)	TGI (HS 578T breast)	TGI (IGROV1 ovarian) [µM]	TGI (KM12 colon)	TGI (PC-3 prostate)	TGI (SN12C renal) [µM]	TGI (U251 CNS)	TGI (UO-31 renal)	TGI (SR leukemia) [µM]	GI50 (A549 NSCLC)	GI50 (BT-549 breast)	GI50 (IGROV1 ovarian)	GI50 (KM12 colon)	GI50 (SN12C renal)	GI50 (SR leukemia)	GI50 (U251 CNS)	GI50 (UO-31 renal)
O=C(/C=C1\N=C(c2ccccc2)N(c2ccc3c(c2)Sc2cc(N4C(=O)/C(=C/C(=O)/C=C/c5ccccc5)N=C4c4ccccc4)ccc2N3)C1=O)/C=C/c1ccccc1	> 100 µM	> 100	52.6 µM	96.3 µM	> 100	> 100 µM	37.6 µM	> 100	57.8 µM	> 100 µM									
COC(=O)c1nc2c(C)c(O)c(O)c([C@H](C)CCC=C(C)C)c2o1	39.5 µM	57.1	> 100 µM	87.4 µM	48.1	67.4 µM	93.5 µM		> 100 µM	41.5 µM	78.5								
CCOC(=O)C1(C(=O)OCC)C[C@H]2CON=C2[C@@H]1c1ccc(C(F)(F)F)cc1	> 100 µM	> 100	> 100 µM	> 100 µM	28.9	> 100 µM	> 100 µM	> 100	> 100 µM	27.5 µM	> 100								
COCOc1cc(OC)ccc1C=O	> 100 µM	> 100	> 100 µM	64.9 µM	> 100	> 100 µM	88.8 µM	> 100	> 100 µM	> 100 µM	78.4								
O=[N+]([O-])c1ccccc1S(=O)(=O)N1CCCc2cc(Cl)ccc21	> 100 µM	> 100	> 100 µM	> 100 µM	> 100	> 83.9 µM	> 100 µM	> 100		> 100 µM	> 79.8								
c1ccc(COc2nc3ccc(C45CC6CC(CC(C6)C4)C5)cc3[nH]2)cc1	> 100 µM	> 100	> 100 µM	> 75.7 µM	> 100	> 100 µM	> 100 µM	> 100	> 78.5 µM	> 64.7 µM	> 100								
CC1(C)OC1CC/C(=C/CBr)CBr (configuration not stated)	28.7 µM	53.1	30.4 µM	47.7 µM	27.3	29.9 µM	29.3 µM	29.1	29.3 µM	28.9 µM	64.6								
CCCCCC(=O)N[C@H](C(=O)N[C@H](C(=O)N(C)[C@@H](CC(C)C)C(=O)N1CCC[C@H]1C(=O)N1CCC[C@H]1C(=O)O[C@H](C(=O)N1C(=O)C=C(OC)[C@@H]1Cc1ccccc1)C(C)C)C(C)C)C(C)C (Hexanoyl-VV[NMeL]PP-X28)	> 100 µM	> 100	> 100 µM	> 100 µM	> 100	> 100 µM	> 80.5 µM	> 100	> 100 µM										
Cn1c2ccccc2n2c(=O)c(-c3ccc(O)cc3)nnc12	> 100 µM	> 100	> 100 µM	> 100 µM	> 100	> 100 µM	> 100 µM	> 100	85.8 µM	> 100 µM	> 100								
O=c1[nH]c2ccc(CC(=S)N3CCN(c4ccccc4)CC3)cc2s1	> 100 µM		> 100 µM	> 100 µM	> 100	> 100 µM	> 100 µM	> 100	21.2 µM		> 100								
CC(=O)c1nc2ccccc2n1CC(=O)c1ccc([N+](=O)[O-])cc1	15.9 µM	37.6	52.6 µM	28.9 µM	14.5	47.3 µM	44.4 µM	> 100	19.9 µM	45.9 µM	> 100								
CC(=O)NC1C(OCC(=O)NC(C)C(=O)NC(CCC(=O)NCCCCCNc2ccc([N+](=O)[O-])c3[nH]c4ccccc4c(=O)c23)C(N)=O)C(O)C(CO)OC1(C)OCc1ccccc1 (configuration not stated)	> 50 µM	> 50	> 50 µM	> 50 µM	> 50	> 50 µM	> 50 µM	> 50	> 50 µM	> 50 µM									
COc1cc(/C=C\c2ccc(SC)cc2)cc(OC)c1OC	18.5 µM	> 100	> 100 µM	> 100 µM	> 17.1	2.8 µM	> 100 µM	> 100	1.11 µM	45.3 µM	15.1								
C=C(C)C1CC2=C(C(=O)OC)C=C(O2)C(C(=C)C)[C@@H]2OC(=O)/C(=C\C1O)[C@H]2N(C)C (some centres not stated)	21 µM	30.8	24.3 µM	44.2 µM	20.9	28 µM	24.5 µM	28.5	33 µM	26.4 µM	> 41.2								
CC(=O)C1=CC=C/C1=N\Nc1ccccc1	15.4 µM	35.1	27.4 µM	34.9 µM	21.3	15.5 µM	18.7 µM	22.7	9.36 µM	25.8 µM	4.95								
CC(C)(C)[C@@H]1NC(=O)CN1C(=O)OCc1ccccc1	> 100 µM	> 100	> 100 µM	> 100 µM	> 100	> 100 µM	> 100 µM	> 100	> 100 µM	> 100 µM	> 100								
COc1ccc(N(C(=O)OC(C)(C)C)[C@@H]2C(C)=C[C@H]([S@@](=O)c3ccc(C)cc3)[C@@H]3C(=O)N(C)C(=O)[C@@H]32)cc1	37.9 µM	> 100	33.9 µM	42.9 µM	23.1	30.5 µM	> 100 µM	32.2	31.9 µM	30.1 µM									
CC(=O)OCc1ccc(-c2nc(C#N)c(N)o2)o1	> 10 µM	> 10	> 10 µM	> 10 µM	> 10	> 10 µM	> 10 µM	> 10		> 10 µM	> 10								
CC(=O)OCC1OC(n2c(-c3ccccc3)c(N=Nc3ccc(Cl)cc3)c(C)c(C#N)c2=S)C(OC(C)=O)C(OC(C)=O)C1OC(C)=O (configuration not stated)	> 100 µM and 88.6 µM	> 100	20.1 µM and 58.8 µM	94 µM and 96.9 µM	> 100	24.4 µM and > 100 µM	37.4 µM and > 100 µM	> 100	15.6 µM and 74.4 µM	27.1 µM and > 100 µM	> 100	6.86 µM and 22.1 µM	5.4 µM and 17.9 µM	7.17 µM and 29.9 µM	9.22 µM and 85.4 µM	12.2 µM and > 100 µM	11.5 µM and 34.9 µM	3.79 µM and 24 µM	5.87 µM and 47.3 µM
